Laboratory results: patent EP0363255A1, “Analogues of 4-desoxydaunosamine, process for their preparation, anthracycline derivatives of these analogues and use of these anthracyclines as medicaments” (LABORATOIRES HOECHST S.A., priority 1988, dated 1990)

Columns and labels:
[1] = system: cellules tumorales L 1210; experiment: Test de prolifération (réduction MTT), L1210; type: cell-based; conditions: 72 h incubation
Method: (§1) Des cellules tumorales L 1210, A 549 et HT 29 en croissance exponentielle, à une densité de 5.10³/ml dans un milieu RPMI, sont incubées dans des plaques de microtitration contenant 96 puits, pendant 72 heures (37°C, 5 % CO₂, 95 % d'humidité relative) avec diffé-rentes concentrations de chacun des glycosides conformes à l'invention.
(§2) Les témoins consistent en cellules tumorales dans un milieu de culture frais.
(§3) Quatre puits sont préparés pour chaque concentration de glycoside et pour le témoin.
(§4) Après 65 heures, 50 µl de MTT (2,5 mg/ml dans du PBS) sont ajoutés.
(§5) Le MTT sera réduit, en présence de cellules vivantes, en un colorant formazan rouge insoluble.
(§6) Après 7 à 24 heures d'incubation supplémentaire, le surnageant est enlevé.
(§7) Le colorant formazan est solubilisé par l'addition de 100 µl de DMSO dans chaque puits, suivie d'une agitation douce. L'extinction est mesurée pour chaque puits, à 492 nm (photomètre Multiscan 340 cc, Fa. Flow).
(§8) Les résultats sont exprimés sous forme de relation de l'extinction après incubation avec les glycosides par rapport à l'extinction obtenue avec les té-moins. Le coefficient de variation est inférieur à 15 %. Les résultats sont représentés dans le tableau I, ci-après : […]

cellules tumorales HT 29 = experiment: Test de prolifération (réduction MTT), HT 29; type: cell-based; conditions: HT 29, MTT test, 72 h incubation
Method: as §1, §2, §3, §4, §5, §6, §7, §8

cellules tumorales A 549 = experiment: Test de prolifération (réduction MTT), A 549; type: cell-based; conditions: A 549, MTT test, 72 h incubation
Method: as §1, §2, §3, §4, §5, §6, §7, §8

leucémie L1210 = conditions: mouse, leucémie L1210, compared with daunorubicine 2a / doxorubicine 2b; cited from earlier work
sarcome S 180 = conditions: mouse, sarcome S 180, compared with daunorubicine 2a / doxorubicine 2b; cited from earlier work
leucémie P 388 = conditions: mouse, leucémie P 388, compared with daunorubicine 2a / doxorubicine 2b; cited from earlier work
[2] = animal models, compared with 2a and 2b; cited from earlier work

Structure (SMILES)	IC₅₀ [1]	IC₅₀ (cellules tumorales HT 29)	IC₅₀ (cellules tumorales A 549)	activité in vivo (leucémie L1210)	activité in vivo (sarcome S 180)	activité in vivo (leucémie P 388)	cardiotoxicité [2]
COc1cccc2c1C(=O)c1c(O)c3c(c(O)c1C2=O)C[C@@](O)(C(C)=O)C[C@@H]3O[C@H]1C[C@H](CNC(=O)C(F)(F)F)C[C@H](C)O1 [15a, O-(N-TRIFLUOROACETYL AMINOMETHYL-3′ TETRADESOXY-2′, 3′, 4′,6′-α-L-LYXO-HEXOPYRANOSYL)-7 DAUNOMYCINONE]	0,25 µg/ml	0,67 µg/ml	0,43 µg/ml	–	–	–	–
CC[C@@]1(O)C[C@H](O[C@H]2C[C@H](CNC(=O)C(F)(F)F)C[C@H](C)O2)c2c(O)c3c(c(O)c2[C@H]1O)C(=O)c1cccc(O)c1C3=O [16a, O-(N-TRIFLUOROACETYL AMINOMETHYL-3′ TETRADESOXY-2′,3′, 4′,6′-α-L-LYXO-HEXOPYRANOSYL)-7 β-RHODOMYCINONE]	0,14 µg/ml	0,48 µg/ml	0,14 µg/ml	–	–	–	–
COc1cccc2c1C(=O)c1c(O)c3c(c(O)c1C2=O)C[C@@](O)(C(C)=O)C[C@@H]3O[C@H]1C[C@H](N)C[C@H](C)O1 [compound 3]	–	–	–	aussi actifs	aussi actifs	aussi actifs	moins cardiotoxiques
COc1cccc2c1C(=O)c1c(O)c3c(c(O)c1C2=O)C[C@@](O)(C(=O)CO)C[C@@H]3O[C@H]1C[C@H](N)C[C@H](C)O1 [compound 4]	–	–	–	aussi actifs	aussi actifs	aussi actifs	moins cardiotoxiques
